# Measurements taken from ChEMBL document CHEMBL4376829, “Discovery and biological evaluation of vinylsulfonamide derivatives as highly potent, covalent TEAD autopalmitoylation inhibitors” (Eur J Med Chem, 2019).
# The source made the active and inactive calls. The rule behind the calls is not given here.
# Columns and labels:
# [1] = biological target: Fibroblast growth factor receptor 2 (Homo sapiens) (UniProt P21802); experiment: Inhibition of recombinant human FGFR2 (456 to 770 residues) at 10 uM using poly(Glu, Tyr) 4:1 as substrate measured after 40 mins in presence of [gamma33P]ATP by scintillation counting method relative to control
# [2] = biological target: Myosin light chain kinase, smooth muscle (Homo sapiens) (UniProt Q15746); experiment: Inhibition of recombinant human MLCK (1425 to 1771 residues) at 10 uM using […] as substrate measured after 40 mins in presence of [gamma33P]ATP by scintillation counting method relative to control
# [3] = biological target: Macrophage colony-stimulating factor 1 receptor (Homo sapiens) (UniProt P07333); experiment: Inhibition of recombinant human FMS (538 to end residues) at 10 uM using KKKSPGEYVNIEFG as substrate after 40 mins in presence of [gamma33P]ATP by scintillation counting method relative to control
# [4] = biological target: Calcium/calmodulin-dependent protein kinase type 1 (Homo sapiens) (UniProt Q14012); experiment: Inhibition of recombinant full length human CAMK1 (2 to end residues) at 10 uM using […] as substrate incubated for 40 mins in presence of [gamma-33P]-ATP by scintillation counting method relative to control
# [5] = biological target: Calcium/calmodulin-dependent protein kinase type IV (Homo sapiens) (UniProt Q16566); experiment: Inhibition of full-length recombinant human Camk4 at 10 uM using calmodulin as substrate after 40 mins by in presence of [gamma33P]ATP by scintillation counting method relative to control
# [6] = biological target: Serine/threonine-protein kinase ULK2 (Homo sapiens) (UniProt Q8IYT8); experiment: Inhibition of recombinant human ULK2 (1 to 306 residues) at 10 uM using casein as substrate measured after 40 mins in presence of [gamm33P]ATP by scintillation counting method relative to control
# [7] = biological target: 5'-AMP-activated protein kinase catalytic subunit alpha-1 (Homo sapiens) (UniProt Q13131); experiment: Inhibition of recombinant full length human AMPKalpha1 at 10 uM using AMARAASAAALARRR as substrate after 40 mins in presence of [gamma33P]ATP by scintillation counting method relative to control
# [8] = biological target: Protein arginine N-methyltransferase 6 (Homo sapiens) (UniProt Q96LA8); experiment: Inhibition of human PRMT6 at 10 uM relative to control
# [9] = biological target: PI3-kinase p110-alpha/p85-alpha (Homo sapiens) (UniProt P27986+P42336); experiment: Inhibition of full-length recombinant human PI3K (p110a/p85a) at 10 uM using phosphatidylinositol 4,5-bisphosphate as substrate after 40 mins by fluorescence based assay relative to control; assay type: protein-complex assay
# [10] = biological target: Vascular endothelial growth factor receptor 2 (Homo sapiens) (UniProt P35968); experiment: Inhibition of recombinant human KDR (790 to end residues) at 10 uM using myelin basic protein as substrate measured after 40 mins in presence of [gamm33P]ATP by scintillation counting method relative to control
# [11] = biological target: Serine/threonine-protein kinase TAO1 (Homo sapiens) (UniProt Q7L7X3); experiment: Inhibition of recombinant human TAO1 (1 to 327 residues) at 10 uM using myelin basic protein as substrate measured after 40 mins in presence of [gamma33P]ATP by scintillation counting method relative to control
# [12] = biological target: CREB-binding protein (Homo sapiens) (UniProt Q92793); experiment: Inhibition of human CBP-BRD at 10 uM relative to control
# [13] = biological target: Serine/threonine-protein kinase 17A (Homo sapiens) (UniProt Q9UEE5); experiment: Inhibition of full-length recombinant human DRAK1 at 10 uM using KKLNRTLSFAEPG as substrate after 40 mins by in presence of [gamma33P]ATP by scintillation counting method relative to control
# [14] = biological target: Fatty acid-binding protein 5 (Homo sapiens) (UniProt Q01469); experiment: Binding affinity to FABP5 (unknown origin) at 1:1 ratio by fluorescence based thermal shift assay
# [15] = biological target: Dual specificity mitogen-activated protein kinase kinase 1 (Homo sapiens) (UniProt Q02750); experiment: Inhibition of recombinant full-length human MEK1 at 10 uM using unactive MAPK2 as substrate measured after 40 mins in presence of [gamma33P]ATP by scintillation counting method relative to control
# [16] = biological target: Serine/threonine-protein kinase MAK (Homo sapiens) (UniProt P20794); experiment: Inhibition of recombinant full-length human MAK at 10 uM using RRRFRPASPLRGPPK as substrate measured after 120 mins in presence of [gamma33P]ATP by scintillation counting method relative to control
# [17] = biological target: Serine/threonine-protein kinase pim-2 (Homo sapiens) (UniProt Q9P1W9); experiment: Inhibition of recombinant human PIM2 (2 to end residues) at 10 uM using RSRHSSYPAGT as substrate measured after 40 mins in presence of [gamma33P]ATP by scintillation counting method relative to control
# [18] = biological target: Serine/threonine-protein kinase 3 (Homo sapiens) (UniProt Q13188); experiment: Inhibition of recombinant full-length human MST2 (2 to end residues) at 10 uM using myelin basic protein as substrate measured after 40 mins in presence of [gamma33P]ATP by scintillation counting method relative to control
# [19] = biological target: Histone-lysine N-methyltransferase SETD7 (Homo sapiens) (UniProt Q8WTS6); experiment: Inhibition of human SET7 at 10 uM relative to control
# Homo sapiens [20] = species on record: Homo sapiens; experiment: Inhibition of recombinant full-length human PI3K p120gamma R459Q mutant at 10 uM using phosphatidylinositol-4, 5-bisphosphate as substrate measured after 40 mins by fluorescence assay relative to control
# Homo sapiens [21] = species on record: Homo sapiens; experiment: Inhibition of recombinant human Flt4 V1128L/H1146R mutant (800 to end residues) at 10 uM using GGEEEEYFELVKKKK as substrate measured after 40 mins in presence of [gamma33P]ATP by scintillation counting method relative to control
# [22] = biological target: Ribosomal protein S6 kinase alpha-2 (Homo sapiens) (UniProt Q15349); experiment: Inhibition of full length recombinant human Rsk3 at 10 uM using KKKNRTLSVA as substrate after 40 mins in presence of [gamma33P]ATP by scintillation counting method relative to control
# [23] = biological target: Cyclin-dependent kinase 5/CDK5 activator 1 (Homo sapiens) (UniProt Q00535+Q15078); experiment: Inhibition of recombinant full-length human CDK5/p25 at 10 uM using histone H1 as substrate measured after 40 mins in presence of [gamma33P]ATP by scintillation counting method relative to control; assay type: protein-complex assay
# [24] = biological target: Serine/threonine-protein kinase WNK1 (Homo sapiens) (UniProt Q9H4A3); experiment: Inhibition of recombinant human WNK1 (1 to 491 residues) at 10 uM using myelin basic protein as substrate measured after 120 mins in presence of [gamm33P]ATP by scintillation counting method relative to control
# [25] = biological target: Rhodopsin kinase GRK7 (Homo sapiens) (UniProt Q8WTQ7); experiment: Inhibition of full length recombinant human GRK7 at 10 uM using casein as substrate after 40 mins in presence of [gamma33P]ATP by scintillation counting method relative to control
# Sequence of Serine/threonine-protein kinase 3 (Homo sapiens) (Q13188 whole entry): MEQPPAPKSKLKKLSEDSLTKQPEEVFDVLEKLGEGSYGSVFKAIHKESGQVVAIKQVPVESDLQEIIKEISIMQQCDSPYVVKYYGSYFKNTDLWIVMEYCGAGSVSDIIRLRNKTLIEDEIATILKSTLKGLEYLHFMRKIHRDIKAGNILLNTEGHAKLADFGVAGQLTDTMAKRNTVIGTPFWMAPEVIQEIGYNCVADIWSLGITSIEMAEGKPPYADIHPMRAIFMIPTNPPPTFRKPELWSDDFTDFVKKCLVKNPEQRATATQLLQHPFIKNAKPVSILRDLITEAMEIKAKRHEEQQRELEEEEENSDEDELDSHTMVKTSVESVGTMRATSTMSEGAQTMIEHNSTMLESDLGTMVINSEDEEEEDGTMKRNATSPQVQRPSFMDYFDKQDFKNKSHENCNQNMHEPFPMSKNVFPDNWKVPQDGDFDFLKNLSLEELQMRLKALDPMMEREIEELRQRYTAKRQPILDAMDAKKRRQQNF
# Sequence of CREB-binding protein (Homo sapiens) (Q92793 2-2442 limits assumed): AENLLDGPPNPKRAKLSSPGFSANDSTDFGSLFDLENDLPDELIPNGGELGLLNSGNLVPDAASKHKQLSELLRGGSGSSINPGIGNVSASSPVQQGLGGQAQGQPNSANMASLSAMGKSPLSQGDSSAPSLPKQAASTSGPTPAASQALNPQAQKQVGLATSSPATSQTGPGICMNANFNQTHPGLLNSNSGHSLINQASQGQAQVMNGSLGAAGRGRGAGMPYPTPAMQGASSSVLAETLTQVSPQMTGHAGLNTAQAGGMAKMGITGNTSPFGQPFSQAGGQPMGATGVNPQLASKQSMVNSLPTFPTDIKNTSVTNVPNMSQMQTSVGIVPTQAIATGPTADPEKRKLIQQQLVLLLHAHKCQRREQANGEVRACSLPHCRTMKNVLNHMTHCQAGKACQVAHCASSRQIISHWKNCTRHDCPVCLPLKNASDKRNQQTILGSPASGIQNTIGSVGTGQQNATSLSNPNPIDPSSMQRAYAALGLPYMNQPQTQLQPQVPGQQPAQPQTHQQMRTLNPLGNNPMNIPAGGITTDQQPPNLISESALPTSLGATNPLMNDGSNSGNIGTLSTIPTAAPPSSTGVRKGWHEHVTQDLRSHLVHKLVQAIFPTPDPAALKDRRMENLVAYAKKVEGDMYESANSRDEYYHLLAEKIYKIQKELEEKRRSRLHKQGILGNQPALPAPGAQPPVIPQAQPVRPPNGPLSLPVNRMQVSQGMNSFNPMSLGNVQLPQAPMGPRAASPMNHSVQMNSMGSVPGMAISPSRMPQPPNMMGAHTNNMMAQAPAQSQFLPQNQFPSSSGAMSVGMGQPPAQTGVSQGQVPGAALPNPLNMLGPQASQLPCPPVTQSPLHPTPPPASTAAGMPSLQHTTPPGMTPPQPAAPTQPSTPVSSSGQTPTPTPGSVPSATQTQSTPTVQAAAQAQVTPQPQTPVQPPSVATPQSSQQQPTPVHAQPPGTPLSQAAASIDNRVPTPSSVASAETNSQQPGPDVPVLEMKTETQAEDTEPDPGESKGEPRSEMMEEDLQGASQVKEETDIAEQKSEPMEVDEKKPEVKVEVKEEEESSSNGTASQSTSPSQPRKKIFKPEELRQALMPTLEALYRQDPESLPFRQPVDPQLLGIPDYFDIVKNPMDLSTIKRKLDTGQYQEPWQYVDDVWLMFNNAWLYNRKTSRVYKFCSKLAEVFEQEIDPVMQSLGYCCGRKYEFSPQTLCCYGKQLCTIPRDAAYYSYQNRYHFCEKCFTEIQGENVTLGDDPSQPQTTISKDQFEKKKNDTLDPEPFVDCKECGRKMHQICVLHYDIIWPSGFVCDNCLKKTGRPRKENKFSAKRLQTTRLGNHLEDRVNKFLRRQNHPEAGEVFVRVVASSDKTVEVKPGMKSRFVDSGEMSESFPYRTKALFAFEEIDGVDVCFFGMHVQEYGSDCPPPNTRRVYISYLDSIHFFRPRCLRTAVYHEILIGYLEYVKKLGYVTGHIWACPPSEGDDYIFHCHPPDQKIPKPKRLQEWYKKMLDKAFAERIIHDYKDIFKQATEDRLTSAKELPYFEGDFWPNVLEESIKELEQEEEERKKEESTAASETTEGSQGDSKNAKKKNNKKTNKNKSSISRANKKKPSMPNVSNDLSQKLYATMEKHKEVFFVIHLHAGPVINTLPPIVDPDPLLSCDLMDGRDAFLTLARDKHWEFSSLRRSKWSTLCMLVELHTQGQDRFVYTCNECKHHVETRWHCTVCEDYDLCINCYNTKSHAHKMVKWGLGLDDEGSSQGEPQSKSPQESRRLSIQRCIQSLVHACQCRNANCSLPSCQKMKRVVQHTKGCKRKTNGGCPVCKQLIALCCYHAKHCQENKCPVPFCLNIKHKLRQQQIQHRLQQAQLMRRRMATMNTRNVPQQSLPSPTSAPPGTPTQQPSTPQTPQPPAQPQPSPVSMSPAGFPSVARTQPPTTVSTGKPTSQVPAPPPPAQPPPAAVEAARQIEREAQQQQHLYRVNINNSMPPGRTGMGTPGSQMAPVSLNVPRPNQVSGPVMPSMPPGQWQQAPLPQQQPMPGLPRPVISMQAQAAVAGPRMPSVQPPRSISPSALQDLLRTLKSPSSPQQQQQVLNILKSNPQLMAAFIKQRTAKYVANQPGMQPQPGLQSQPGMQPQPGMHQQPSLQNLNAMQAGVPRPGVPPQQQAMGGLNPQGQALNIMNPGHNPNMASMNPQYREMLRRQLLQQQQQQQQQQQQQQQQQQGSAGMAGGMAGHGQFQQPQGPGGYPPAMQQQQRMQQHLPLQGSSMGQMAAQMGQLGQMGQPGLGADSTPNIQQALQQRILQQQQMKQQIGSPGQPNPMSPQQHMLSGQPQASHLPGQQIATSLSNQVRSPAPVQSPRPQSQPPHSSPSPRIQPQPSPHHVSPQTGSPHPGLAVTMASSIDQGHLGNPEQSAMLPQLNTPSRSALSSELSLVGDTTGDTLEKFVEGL
# Sequence of 5'-AMP-activated protein kinase catalytic subunit alpha-1 (Homo sapiens) (Q13131 whole entry, looked up): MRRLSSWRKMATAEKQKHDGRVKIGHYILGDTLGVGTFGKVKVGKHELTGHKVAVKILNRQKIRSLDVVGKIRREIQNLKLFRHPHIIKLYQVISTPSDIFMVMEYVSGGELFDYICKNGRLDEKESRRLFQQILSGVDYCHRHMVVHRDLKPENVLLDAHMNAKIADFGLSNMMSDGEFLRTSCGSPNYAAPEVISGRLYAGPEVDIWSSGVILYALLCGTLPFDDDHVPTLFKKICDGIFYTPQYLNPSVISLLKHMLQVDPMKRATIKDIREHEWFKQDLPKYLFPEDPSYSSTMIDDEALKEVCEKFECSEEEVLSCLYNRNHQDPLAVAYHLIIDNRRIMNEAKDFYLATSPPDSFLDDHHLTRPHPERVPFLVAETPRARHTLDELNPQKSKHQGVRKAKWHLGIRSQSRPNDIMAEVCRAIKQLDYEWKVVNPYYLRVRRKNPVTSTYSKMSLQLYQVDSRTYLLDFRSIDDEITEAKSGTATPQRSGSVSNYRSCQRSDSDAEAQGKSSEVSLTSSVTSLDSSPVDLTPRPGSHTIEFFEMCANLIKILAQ
# Sequence of Serine/threonine-protein kinase ULK2 (Homo sapiens) (Q8IYT8 whole entry, the tested form may be a part): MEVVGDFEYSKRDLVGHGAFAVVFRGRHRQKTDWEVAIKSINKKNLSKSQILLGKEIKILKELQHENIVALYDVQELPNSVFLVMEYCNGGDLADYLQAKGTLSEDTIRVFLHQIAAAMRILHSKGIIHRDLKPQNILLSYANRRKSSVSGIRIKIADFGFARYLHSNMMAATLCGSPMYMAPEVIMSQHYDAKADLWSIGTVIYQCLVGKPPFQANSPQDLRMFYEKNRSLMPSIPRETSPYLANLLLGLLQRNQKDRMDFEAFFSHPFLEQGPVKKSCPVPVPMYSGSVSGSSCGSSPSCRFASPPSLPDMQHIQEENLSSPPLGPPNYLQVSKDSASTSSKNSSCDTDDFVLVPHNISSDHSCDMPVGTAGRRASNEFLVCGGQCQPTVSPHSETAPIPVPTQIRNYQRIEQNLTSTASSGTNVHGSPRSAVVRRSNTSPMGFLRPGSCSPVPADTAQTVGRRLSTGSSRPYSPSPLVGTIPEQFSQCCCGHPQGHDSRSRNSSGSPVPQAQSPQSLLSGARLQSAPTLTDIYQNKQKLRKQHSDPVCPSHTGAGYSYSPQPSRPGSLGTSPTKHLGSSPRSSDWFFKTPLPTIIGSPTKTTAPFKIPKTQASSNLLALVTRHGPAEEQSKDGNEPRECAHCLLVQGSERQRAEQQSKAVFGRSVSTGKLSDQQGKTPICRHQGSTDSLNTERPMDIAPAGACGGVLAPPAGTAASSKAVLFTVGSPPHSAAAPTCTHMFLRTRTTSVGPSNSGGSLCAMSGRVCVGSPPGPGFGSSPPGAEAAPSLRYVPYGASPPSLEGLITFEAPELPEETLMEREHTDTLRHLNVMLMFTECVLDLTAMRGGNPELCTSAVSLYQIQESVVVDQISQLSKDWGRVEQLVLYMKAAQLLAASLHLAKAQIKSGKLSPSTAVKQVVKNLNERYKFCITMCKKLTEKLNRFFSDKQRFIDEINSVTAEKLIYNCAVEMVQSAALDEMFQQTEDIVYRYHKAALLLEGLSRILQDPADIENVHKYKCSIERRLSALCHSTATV
# Sequence of Fatty acid-binding protein 5 (Homo sapiens) (Q01469 whole entry): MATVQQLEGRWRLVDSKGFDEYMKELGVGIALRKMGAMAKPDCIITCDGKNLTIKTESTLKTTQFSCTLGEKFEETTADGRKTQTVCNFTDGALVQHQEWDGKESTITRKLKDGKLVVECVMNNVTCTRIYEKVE
# Sequence of Serine/threonine-protein kinase pim-2 (Homo sapiens) (Q9P1W9 whole entry, looked up): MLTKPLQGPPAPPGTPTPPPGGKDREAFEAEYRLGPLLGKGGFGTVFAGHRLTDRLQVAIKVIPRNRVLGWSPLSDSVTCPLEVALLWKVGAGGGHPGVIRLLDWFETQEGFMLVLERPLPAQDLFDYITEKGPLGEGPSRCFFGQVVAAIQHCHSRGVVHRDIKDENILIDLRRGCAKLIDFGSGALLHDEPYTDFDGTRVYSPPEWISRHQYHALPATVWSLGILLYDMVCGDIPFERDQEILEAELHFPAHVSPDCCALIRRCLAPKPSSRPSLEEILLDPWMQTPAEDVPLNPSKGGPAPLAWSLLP
smiles,measurement,setting,value
C=CS(=O)(=O)Nc1ccc(Cc2ccc3ccccc3c2)cc1,inhibition,[1],-4%
same,inhibition,[2],5%
same,inhibition,[3],3%
same,inhibition,[4],6%
same,inhibition,[5],2%
same,inhibition,[6],2%
same,inhibition,[7],2%
same,inhibition,[8],7%
same,inhibition,[9],16%
same,inhibition,[10],2%
same,inhibition,[11],-10%
same,inhibition,[12],10%
same,inhibition,[13],-1%
same,Activity,[14],Active
same,inhibition,[15],-3%
same,inhibition,[16],-3%
same,inhibition,[17],13%
same,inhibition,[18],2%
same,inhibition,[19],2%
same,inhibition,Homo sapiens [20],5%
same,inhibition,Homo sapiens [21],15%
same,inhibition,[22],9%
same,inhibition,[23],0%
same,inhibition,[24],-10%
same,inhibition,[25],4%
